Test results: US20260317324A1, “BIFUNCTIONAL COMPOUNDS FOR DEGRADING BRAF VIA UBIQUITIN PROTEOSOME PATHWAY” (Nurix Therapeutics, Inc., priority 2023, published 2026)

Legend:
Format in all cases: cell-based
BRAF V600E = biological target: T1, BRAF V600E (Homo sapiens, UniProt P15056, V600E); test: BRAF HiBiT degradation assay, C-terminal HiBiT-tagged BRAF V600E A375 cells (clone 1F10), Nano-Glo HiBiT Lytic assay; details: for Dmax: A-375
T1 construct: endogenous C-terminal HiBiT fusion tag on BRAF V600E allele; endogenous in cells; host or cells: A375 clone 1F10 (CRISPR-Cas9 knock-in of the HiBiT tag; parental A375 from ATCC)
T1 sequence (P15056 whole entry V600E, the tested form may be a part): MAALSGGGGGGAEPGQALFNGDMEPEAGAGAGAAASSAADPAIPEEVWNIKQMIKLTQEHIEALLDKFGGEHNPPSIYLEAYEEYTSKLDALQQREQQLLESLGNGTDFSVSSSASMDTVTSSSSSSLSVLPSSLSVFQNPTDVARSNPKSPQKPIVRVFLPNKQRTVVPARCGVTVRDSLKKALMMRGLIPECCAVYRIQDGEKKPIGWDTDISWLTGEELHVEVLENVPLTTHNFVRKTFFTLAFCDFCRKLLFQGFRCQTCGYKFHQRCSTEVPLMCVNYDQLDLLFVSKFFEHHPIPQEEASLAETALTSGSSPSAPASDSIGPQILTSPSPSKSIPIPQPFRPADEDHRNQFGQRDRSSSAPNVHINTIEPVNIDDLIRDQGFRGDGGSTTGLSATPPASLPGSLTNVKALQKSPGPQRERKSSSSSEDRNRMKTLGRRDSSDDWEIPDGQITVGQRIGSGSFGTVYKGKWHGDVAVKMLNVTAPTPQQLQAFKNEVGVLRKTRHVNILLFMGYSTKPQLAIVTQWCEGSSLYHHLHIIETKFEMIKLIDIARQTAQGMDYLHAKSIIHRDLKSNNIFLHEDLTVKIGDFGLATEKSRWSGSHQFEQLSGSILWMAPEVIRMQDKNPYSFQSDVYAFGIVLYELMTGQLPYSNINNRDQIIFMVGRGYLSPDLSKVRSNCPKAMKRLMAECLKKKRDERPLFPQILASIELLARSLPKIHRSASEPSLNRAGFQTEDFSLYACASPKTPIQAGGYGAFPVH
Outline: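 Using CRISPR-engineered A375 cells that carry a C-terminal HiBiT tag on endogenous BRAF V600E, remaining protein was quantified by lytic luminescence relative to DMSO-treated cells, with wildtype A375 as the background control. DC50 denotes the concentration giving 50% degradation.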

BRAF G466V = biological target: T2, BRAF G466V (Homo sapiens, UniProt P15056, G466V); test: BRAF HiBiT degradation assay, C-terminal HiBiT-tagged BRAF G466V overexpressed in HCT-116 BRAF−/− cells (clone 8), Nano-Glo HiBiT Lytic assay
T2 construct: Horizon Discovery (HCT-116 BRAF−/− cells); host or cells: HCT-116 BRAF−/− cells, clone 8, lentiviral transduction
T2 sequence (P15056 whole entry G466V): as the sequence (P15056 whole entry V600E, the tested form may be a part) above, with G466V, E600V counted along it
Outline: (§1)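 Degradation assay in HCT-116 BRAF−/− cells carrying lentiviral HiBiT-tagged mutant BRAF. The readout is % protein remaining across 1 μM to 0.01 nM compound, and DC50 marks 50% remaining.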

BRAF G469A = biological target: T3, BRAF G469A (Homo sapiens, UniProt P15056, G469A); test: BRAF HiBiT degradation assay, C-terminal HiBiT-tagged BRAF G469A overexpressed in HCT-116 BRAF−/− cells (clone 34), Nano-Glo HiBiT Lytic assay
T3 construct: Horizon Discovery (HCT-116 BRAF−/− cells); host or cells: HCT-116 BRAF−/− cells, clone 34, lentiviral transduction
T3 sequence (P15056 whole entry G469A): as the sequence (P15056 whole entry V600E, the tested form may be a part) above, with G469A, E600V counted along it
Outline: as §1

BRAF D594G = biological target: T4, BRAF D594G (Homo sapiens, UniProt P15056, D594G); test: BRAF HiBiT degradation assay, C-terminal HiBiT-tagged BRAF D594G overexpressed in HCT-116 BRAF−/− cells (clone 63), Nano-Glo HiBiT Lytic assay
T4 construct: Horizon Discovery (HCT-116 BRAF−/− cells); host or cells: HCT-116 BRAF−/− cells, clone 63, lentiviral transduction
T4 sequence (P15056 whole entry D594G): as the sequence (P15056 whole entry V600E, the tested form may be a part) above, with D594G, E600V counted along it
Outline: as §1

[1] = A375 (BRAF V600E, Class 1), DC50 at 50% degradation
[2] = A375 (BRAF V600E, Class 1), observed Dmax, % protein degraded relative to DMSO control
[3] = BRAF G466V (Class 3), HCT-116 BRAF−/− cells, DC50 at 50% degradation
[4] = BRAF G466V (Class 3), HCT-116 BRAF−/− cells, observed Dmax relative to DMSO control
[5] = BRAF G469A (Class 2), HCT-116 BRAF−/− cells, DC50 at 50% degradation
[6] = BRAF G469A (Class 2), HCT-116 BRAF−/− cells, observed Dmax relative to DMSO control
[7] = BRAF D594G (Class 3), HCT-116 BRAF−/− cells, DC50 at 50% degradation
[8] = BRAF D594G (Class 3), HCT-116 BRAF−/− cells, observed Dmax relative to DMSO control
[9] = A375 (BRAF V600E), DC50 at 50%: fitted conc. at Y=50
[10] = A375 (BRAF V600E), percentage protein degraded at maximal compound effect relative to DMSO
[11] = BRAF G466V, DC50 at 50%: fitted conc. at Y=50
[12] = HCT-116, BRAF G466V, percentage protein degraded at maximal compound effect relative to DMSO
[13] = Class 2, BRAF G469A, DC50 at 50%: fitted conc. at Y=50
[14] = HCT-116, Class 2, BRAF G469A, percentage protein degraded at maximal compound effect relative to DMSO
[15] = BRAF D594G, DC50 at 50%: fitted conc. at Y=50
[16] = HCT-116, BRAF D594G, percentage protein degraded at maximal compound effect relative to DMSO

Compound	DC50 (BRAF V600E; [1])	Dmax (BRAF V600E; [2])	DC50 (BRAF G466V; [3])	Dmax (BRAF G466V; [4])	DC50 (BRAF G469A; [5])	Dmax (BRAF G469A; [6])	DC50 (BRAF D594G; [7])	Dmax (BRAF D594G; [8])	DC50 (BRAF V600E; [9])	Dmax (BRAF V600E; [10])	DC50 (BRAF G466V; [11])	Dmax (BRAF G466V; [12])	DC50 (BRAF G469A; [13])	Dmax (BRAF G469A; [14])	DC50 (BRAF D594G; [15])	Dmax (BRAF D594G; [16])
O=C1CCN(c2ccc(N3CCC(CN4CCN(c5cnc(-n6cc(-c7cc(Cl)cc(NS(=O)(=O)N8CCCC8)c7F)c(-c7ccncc7)n6)nc5)CC4)CC3)cc2)C(=O)N1 [Compound 358, N-[5-chloro-3-(1-{5-[4-({1-[4-(2,4-dioxo-1,3-diazinan-1-yl)phenyl]piperidin-4-yl}methyl)piperazin-1-yl]pyrimidin-2-yl}-3-(pyridin-4-yl)-1H-pyrazol-4-yl)-2-fluorophenyl]pyrrolidine-1-sulfonamide]	< 10 nM	> 70%	10 to 50 nM	30 to 70%	> 500 nM	30 to 70%	< 10 nM	30 to 70%								
CCCS(=O)(=O)Nc1cccc(-c2nc(C3CCC4(CC3)CCN(C(=O)C3CCN(c5cccc6c5n(C)c(=O)n6C5CCC(=O)NC5=O)CC3)CC4)sc2-c2ccnc(N)n2)c1F (racemic) [Compound 251, Rac-N-{3-[5-(2-aminopyrimidin-4-yl)-2-[3-(1-{1-[(3R)-2,6-dioxopiperidin-3-yl]-3-methyl-2-oxo-2,3-dihydro-1H-1,3-benzodiazol-4-yl}piperidine-4-carbonyl)-3-azaspiro[5.5]undecan-9-yl]-1,3-thiazol-4-yl]-2-fluorophenyl}propane-1-sulfonamide]	< 10 nM	> 70%	< 10 nM	30 to 70%	> 500 nM	30 to 70%	< 10 nM	30 to 70%								
CCCS(=O)(=O)Nc1cccc(-c2nc(C3CCN(C(=O)C4(C)CCN(C(=O)CC5CCN(c6ccc(C7CCC(=O)NC7=O)cn6)CC5)CC4)CC3)sc2-c2ccnc(N)n2)c1F (racemic) [Compound 194, Rac-N-{3-[5-(2-aminopyrimidin-4-yl)-2-(1-{1-[2-(1-{5-[(3R)-2,6-dioxopiperidin-3-yl]pyridin-2-yl}piperidin-4-yl)acetyl]-4-methylpiperidine-4-carbonyl}piperidin-4-yl)-1,3-thiazol-4-yl]-2-fluorophenyl}propane-1-sulfonamide]									< 10 nM	> 70%	> 500 nM	30 to 70%	> 500 nM	< 30%	> 500 nM	30 to 70%
O=C1CCC(c2ccc(N3CCC(CN4CCN(c5ccc(-n6cc(-c7cc(Cl)cc(NS(=O)(=O)N8CCCC8)c7F)c(-c7ccncc7)n6)c(F)c5)CC4)CC3)nc2)C(=O)N1 (racemic) [Compound 266, Rac-(R)—N-(5-chloro-3-(1-(4-(4-((1-(5-(2,6-dioxopiperidin-3-yl)pyridin-2-yl)piperidin-4-yl)methyl)piperazin-1-yl)-2-fluorophenyl)-3-(pyridin-4-yl)-1H-pyrazol-4-yl)-2-fluorophenyl)pyrrolidine-1-sulfonamide]	< 10 nM	> 70%	< 10 nM	> 70%	10 to 50 nM	> 70%	< 10 nM	30 to 70%								
O=C1CC[C@H](c2ccc(N3CCC(CN4CCN(c5ccc(-n6cc(-c7cc(Cl)cc(NS(=O)(=O)N8CC[C@@H](F)C8)c7F)c(-c7ccncc7)n6)cc5)CC4)CC3)cc2)C(=O)N1 [Compound 291, (3R)—N-{5-chloro-3-[1-(4-{4-[(1-{4-[(3R)-2,6-dioxopiperidin-3-yl]phenyl}piperidin-4-yl)methyl]piperazin-1-yl}phenyl)-3-(pyridin-4-yl)-1H-pyrazol-4-yl]-2-fluorophenyl}-3-fluoropyrrolidine-1-sulfonamide]	< 10 nM	> 70%	< 10 nM	> 70%	< 10 nM	> 70%	< 10 nM	> 70%								
O=C1CC[C@H](c2ccc(N3CCC(CN4CCN(c5ccc(-n6cc(-c7cc(Cl)cc(NS(=O)(=O)N8CC[C@@H](F)C8)c7F)c(-c7ccncc7)n6)nc5)CC4)CC3)nc2)C(=O)N1 [Compound 297, (3R)—N-{5-chloro-3-[1-(5-{4-[(1-{5-[(3R)-2,6-dioxopiperidin-3-yl]pyridin-2-yl}piperidin-4-yl)methyl]piperazin-1-yl}pyridin-2-yl)-3-(pyridin-4-yl)-1H-pyrazol-4-yl]-2-fluorophenyl}-3-fluoropyrrolidine-1-sulfonamide]	< 10 nM	> 70%	< 10 nM	> 70%	< 10 nM	> 70%	< 10 nM	> 70%								
CCCS(=O)(=O)Nc1cccc(-c2nc(C(C)(C)C)sc2-c2ccnc(Nc3ccc(C4CCN(CC5CCN(c6cncc(C7CCC(=O)NC7=O)c6)CC5)CC4)cc3)n2)c1F (racemic) [Compound 177, Rac-N-[3-(2-tert-butyl-5-{2-[(4-{1-[(1-{5-[(3R)-2,6-dioxopiperidin-3-yl]pyridin-3-yl}piperidin-4-yl)methyl]piperidin-4-yl}phenyl)amino]pyrimidin-4-yl}-1,3-thiazol-4-yl)-2-fluorophenyl]propane-1-sulfonamide]									10 to 50 nM	> 70%	> 500 nM	< 30%	> 500 nM	< 30%	> 500 nM	< 30%
CCCS(=O)(=O)Nc1cccc(-c2nc(C3CCN(C(=O)C4CCN(CC5CCN(c6ccc(C7CCC(=O)NC7=O)cn6)CC5)CC4)CC3)sc2-c2ccncc2)c1F (racemic) [Compound 211, Rac-N-{3-[2-(1-{1-[(1-{5-[(3R)-2,6-dioxopiperidin-3-yl]pyridin-2-yl}piperidin-4-yl)methyl]piperidine-4-carbonyl}piperidin-4-yl)-5-(pyridin-4-yl)-1,3-thiazol-4-yl]-2-fluorophenyl}propane-1-sulfonamide]									50 to 500 nM	> 70%	> 500 nM	30 to 70%	> 500 nM	< 30%	> 500 nM	30 to 70%
CCCS(=O)(=O)Nc1cccc(-c2nc(C)sc2-c2ccnc(Nc3ccc(N4CCN(CC5CCN(c6ccc([C@@H]7CCC(=O)NC7=O)cc6)CC5)CC4)cn3)n2)c1F [Compound 61, N-[3-(5-{2-[(5-{4-[(1-{4-[(3S)-2,6-dioxopiperidin-3-yl]phenyl}piperidin-4-yl)methyl]piperazin-1-yl}pyridin-2-yl)amino]pyrimidin-4-yl}-2-methyl-1,3-thiazol-4-yl)-2-fluorophenyl]propane-1-sulfonamide]									< 10 nM	> 70%	> 500 nM	30 to 70%	< 10 nM	30 to 70%	> 500 nM	30 to 70%
CCCS(=O)(=O)Nc1cccc(-c2cn(-c3ccc(N4CCN(CC5CCN(c6ccc([C@H]7CCC(=O)NC7=O)cc6)CC5)CC4)cc3)nc2-c2ccncc2)c1F [Compound 16, N-{3-[1-(4-{4-[(1-{4-[(3R)-2,6-dioxopiperidin-3-yl]phenyl}piperidin-4-yl)methyl]piperazin-1-yl}phenyl)-3-(pyridin-4-yl)-1H-pyrazol-4-yl]-2-fluorophenyl}propane-1-sulfonamide]									10 to 50 nM	> 70%	10 to 50 nM	> 70%	50 to 500 nM	30 to 70%	< 10 nM	30 to 70%
O=C1CC[C@H](c2ccc(N3CCC(CN4CCN(c5ccc(-n6cc(-c7cc(Cl)cc(NS(=O)(=O)N8CC(F)C8)c7F)c(-c7ccncc7)n6)cc5)CC4)CC3)cc2)C(=O)N1 [Compound 333, N-{5-chloro-3-[1-(4-{4-[(1-{4-[(3R)-2,6-dioxopiperidin-3-yl]phenyl}piperidin-4-yl)methyl]piperazin-1-yl}phenyl)-3-(pyridin-4-yl)-1H-pyrazol-4-yl]-2-fluorophenyl}-3-fluoroazetidine-1-sulfonamide]	< 10 nM	> 70%	< 10 nM	> 70%	< 10 nM	30 to 70%	< 10 nM	30 to 70%								
